Assay: Stability in plasma under handling and storage conditions (HPLC)
Type: in vitro ADME
Method: The detection and quantification of compound 1 in the blood matrices were performed after sample processing, using a liquid-liquid extraction methodology. First, 100 µL of plasma was enriched with 10 µL of PI (0.8 µg/mL). Subsequently, 500 µL of hexane was added and the mixture was vortexed for 1 min and centrifuged at 22,082 × g for 5 min. The organic phase was collected in glass tubes and the aqueous phase was subjected to the liquid-liquid extraction procedure again. In the end, the combined organic samples were completely evaporated at 60°C under nitrogen flow and reconstituted in 100 µL of 40:60 ACN:H2O + 0.1% orthophosphoric acid (pH 2.08). Finally, the extracts were centrifuged at 22,082 × g for 2 min and injected into the chromatographic system. Chromatographic analyses by HPLC were performed using a C18 column (Purospher Star LiChroCART, 55 × 4 mm, 3 µm) with gradient elution (Table 1).
Method validation was performed following the guidelines for bioanalytical methods validation of the Food and Drug Administration and European Medicines Agency ([29], [30]). Thus, the acceptance criteria set out in these guides were adopted for the parameters of selectivity, linearity, precision, accuracy, lower limit of quantification (LLOQ), and stability. Quality controls of the lower limit of quantification (QCLOQ—0.03 µg/mL), low (QC1—0.08 µg/mL), medium (QC2—2 µg/mL), and high (QC3—5 µg/mL), were also established in accordance with the guides. […] In addition, stability was established after exposure to different conditions, mimicking storage and handling throughout the experimental process (Table 2).

## C=CCc1cc(OC)c(OCc2ccc(OC)cc2)c(Oc2ccc(CN3CCOCC3)cc2OC)c1 [compound 1, 4-(4-(5-allyl-3-methoxy-2-((4-methoxybenzyl)oxy)phenoxy)-3-methoxybenzyl)morpholine]
0.08 µg/mL, processed sample, 2 h at room temperature
  Stability/reference analyte concentration (%): 98.35%
0.08 µg/mL, processed sample, 24 h at 4°C
  Stability/reference analyte concentration (%): 99.12%
0.08 µg/mL, unprocessed sample, 2 h at room temperature
  Stability/reference analyte concentration (%): 86.54%
0.08 µg/mL, unprocessed sample, 6 h at 4°C
  Stability/reference analyte concentration (%): 91.74%
0.08 µg/mL, unprocessed sample, 24 h at 4°C
  Stability/reference analyte concentration (%): 87.07%
0.08 µg/mL, unprocessed sample, 15 days at −20°C
  Stability/reference analyte concentration (%): 85.36%
0.08 µg/mL, unprocessed sample, 30 days at −20°C
  Stability/reference analyte concentration (%): 92.66%
0.08 µg/mL, unprocessed sample, freezing/thawing
  Stability/reference analyte concentration (%): 88.58%
5.00 µg/mL, processed sample, 2 h at room temperature
  Stability/reference analyte concentration (%): 100.43%
5.00 µg/mL, processed sample, 24 h at 4°C
  Stability/reference analyte concentration (%): 98.84%
5.00 µg/mL, unprocessed sample, 2 h at room temperature
  Stability/reference analyte concentration (%): 90.90%
5.00 µg/mL, unprocessed sample, 6 h at 4°C
  Stability/reference analyte concentration (%): 95.92%
5.00 µg/mL, unprocessed sample, 24 h at 4°C
  Stability/reference analyte concentration (%): 91.65%
5.00 µg/mL, unprocessed sample, 15 days at −20°C
  Stability/reference analyte concentration (%): 90.53%
5.00 µg/mL, unprocessed sample, 30 days at −20°C
  Stability/reference analyte concentration (%): 93.24%
5.00 µg/mL, unprocessed sample, freezing/thawing
  Stability/reference analyte concentration (%): 97.49%
